Data reported in patent US20180252736A1, “CB2 RECEPTOR INTERNALIZATION” (Arena Pharmaceuticals, Inc., priority 2015, published 2018).
“Also recorded” adds a separate entry of the source.

Columns and labels:
[1] = Plasma concentration in the osteoarthritis pain model studies; format: in vivo, rat; conditions: for course of plasma concentration: during the pain model time course
rat CB2 receptor [2] = biological target: T1, rat CB2 receptor (Rattus norvegicus, UniProt Q9QZN9); assay: CB2 receptor internalization assay (conventional fluorescence microscopy); format: cell-based; design: expressed in transfected cells; conditions: for receptor internalization: FIG. 10 comparison; for receptor internalization efficacy relative to CP55,940, rat CB2: fluorescence microscopy
T1 sequence (Q9QZN9 1-360): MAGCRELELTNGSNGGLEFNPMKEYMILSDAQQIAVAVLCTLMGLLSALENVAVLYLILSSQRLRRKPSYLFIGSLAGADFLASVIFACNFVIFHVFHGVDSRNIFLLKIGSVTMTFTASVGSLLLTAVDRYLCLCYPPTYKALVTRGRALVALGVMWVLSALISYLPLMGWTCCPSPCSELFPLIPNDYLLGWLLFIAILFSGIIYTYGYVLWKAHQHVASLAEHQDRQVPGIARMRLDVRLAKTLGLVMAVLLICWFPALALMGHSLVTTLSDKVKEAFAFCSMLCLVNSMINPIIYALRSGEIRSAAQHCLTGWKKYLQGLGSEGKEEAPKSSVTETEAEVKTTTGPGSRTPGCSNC
Protocol: (§1) Receptor internalization assays for the CB2 receptor were performed using a high content imaging system (e.g., IN Cell Analyzer, GE Healthcare Life Sciences, Pittsburgh, Pa.), or by conventional fluorescence microscopy with accessory image analysis software.
[…]. On the day of the assay, growth media was removed from the cell plate and replaced with 25 μL pre-warmed RPMI media. Additionally, 25 μL of pre-warmed RPMI media containing a fluorescent nuclear stain (Hoescht 33342 dye (1:500 dilution); Catalog #H-1399, Invitrogen,) and fluorophore-labeled antibody (Alexa-488 anti-HA monoclonal antibody (1:50 dilution); Catalog #A-21287, Invitrogen, Waltham, Mass.) was added to the cell plate. Test compounds or CP55,940 dissolved in DMSO were serially diluted in DMSO and then further diluted in RPMI to achieve 3× concentrations in 0.5% DMSO. Aliquots (25 μL) of diluted test compounds were added to assay plates, which were then incubated in a water bath at 37° C. for 1 hour. Compound containing media was removed at the end of the treatment period by inversion of the plate. The assay plate was washed twice with PBS (150 μL/well) and the cells were then fixed with 2% formaldehyde/PBS solution for 10 minutes at room temperature. Fluorescence microscopy images were captured for each well on the plate (minimum of 6 per well). The internalization of anti-HA antibody-labeled CB2 receptors results in redistribution of fluorescence from the cell surface to intracellular endosomes, which appear as punctate fluorescent granules within the cell. Quantification of receptor internalization was performed by measuring the Alexa-488 anti-HA monoclonal antibody-stained intracellular granule fluorescence intensities normalized per cell number in each well. Dose-response curves were generated using a minimum of 8 different test concentrations and triplicate determinations were made at each test concentration. Assay performance was monitored by inclusion of a standard CB2 reference agonist such as CP55,940 and agonist internalization efficacies were reported relative to that of the reference agonist.

[3] = test system: MIA-induced osteoarthritis in male Sprague Dawley rats; assay: Osteoarthritis pain model (MIA); format: in vivo, rat; conditions: for in vivo efficacy over time in the osteoarthritis pain model: oral dosing; for time following dosing at which in vivo efficacy was lost / time of peak efficacy following dosing / time following dosing up to which in vivo efficacy was maintained: osteoarthritis pain model
Description: Injection of monosodium iodoacetate (MIA) into a joint (J Rheumatol 14:130-1, 1987) inhibits the activity of glyceraldehyde-3-phosphate dehydrogenase in chondrocytes, resulting in disruption of glycolysis and eventually in cell death. The progressive loss of chondrocytes results in histological and morphological changes of the articular cartilage, closely resembling those seen in osteoarthritis patients.
Osteoarthritis was induced in 200 g male Sprague Dawley rats. After brief anesthesia by isoflurane, rats received a single intra-articular injection of MIA (2 mg) (Catalog #19148, Sigma Aldrich, Saint Louis, Mo.) dissolved in 0.9% sterile saline in a 50 μL volume administered through the patella ligament into the joint space of the left knee with a 30 G needle. Following injection, animals were allowed to recover from anesthesia before being returned to the main housing vivarium.
Typically during disease progression, there is an inflammation period of 0-7 days post-intra-articular injection followed by progressive degeneration of the cartilage and subchondral bone from days 14-55. Efficacy studies with a compound described herein took place from day 14 onwards and were performed twice a week with at least three days of wash-out in between each assay. Three different assays can be used to measure pain. Tactile allodynia can be measured via von Frey assay, hind limb paw weight distribution can be monitored using an incapacitance tester (Columbus Instruments, Columbus, Ohio), and hind limb grip strength can be measured using a grip strength meter (Columbus Instruments, Columbus, Ohio). Briefly, the von Frey assay was performed using the standard up/down method with von Frey filaments. Hind paw weight distribution was determined by placing rats in a chamber so that each hind paw rested on a separate force plate of the incapacitance tester. The force exerted by each hind limb (measured in grams) was averaged over a three second period. Three measurements are taken for each rat, and the change in hind paw weight distribution was calculated. Peak hind limb grip force was conducted by recoding the maximum compressive force exerted on the hind limb mesh gauge set on the grip strength meter. During testing, each rat was restrained and the paw of the injected knee was allowed to grip the mesh. The animal was then pulled in an upward motion until their grip was broken. Each rat was tested three times, with the contralateral paw used as a control.
A baseline was established for animals prior to administration of compounds. The MIA-treated groups of rats were then dosed with either vehicle (PEG400, orally), test compound (at 3 mg/kg, 10 mg/kg, and 30 mg/kg, orally), or morphine (3 mg/kg, subcutaneously). The dosing volume was 500 μL. One hour after dosing, von Frey assay, hind limb weight distribution and/or hind limb grip analysis was performed to measure the efficacy of the test compounds.

rat CB2 receptor [4] = biological target: T1, rat CB2 receptor; assay: β-arrestin recruitment assay (PathHunter CHO-K1); format: cell-based; design: host or cells: PathHunter CHO-K1; conditions: relative to CP55,940
hCB2 [5] = biological target: T2, hCB2 (Homo sapiens, UniProt P34972); assay: β-arrestin recruitment assay (PathHunter CHO-K1); format: cell-based; design: host or cells: PathHunter CHO-K1; conditions: relative to CP55,940
T2 sequence (P34972 whole entry): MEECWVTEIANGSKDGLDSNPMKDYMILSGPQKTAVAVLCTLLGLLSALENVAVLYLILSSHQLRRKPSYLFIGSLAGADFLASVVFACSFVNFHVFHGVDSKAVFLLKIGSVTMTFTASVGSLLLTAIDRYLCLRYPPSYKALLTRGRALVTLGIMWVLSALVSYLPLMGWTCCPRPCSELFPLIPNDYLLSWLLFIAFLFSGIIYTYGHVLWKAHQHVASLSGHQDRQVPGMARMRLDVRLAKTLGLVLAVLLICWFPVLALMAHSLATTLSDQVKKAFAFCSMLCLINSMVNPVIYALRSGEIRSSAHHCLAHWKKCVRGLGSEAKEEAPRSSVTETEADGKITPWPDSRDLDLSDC

human CB2 receptors = assay: CB2 receptor internalization assay (conventional fluorescence microscopy); format: cell-based
Protocol: as §1
[…]. On the day of the assay, growth media was removed from the cell plate and replaced with 25 μL pre-warmed RPMI media. Additionally, 25 μL of pre-warmed RPMI media containing a fluorescent nuclear stain (Hoescht 33342 dye (1:500 dilution); Catalog #H-1399, Invitrogen,) and fluorophore-labeled antibody (Alexa-488 anti-HA monoclonal antibody (1:50 dilution); Catalog #A-21287, Invitrogen, Waltham, Mass.) was added to the cell plate. Test compounds or CP55,940 dissolved in DMSO were serially diluted in DMSO and then further diluted in RPMI to achieve 3× concentrations in 0.5% DMSO. […] Fluorescence microscopy images were captured for each well on the plate (minimum of 6 per well). The internalization of anti-HA antibody-labeled CB2 receptors results in redistribution of fluorescence from the cell surface to intracellular endosomes, which appear as punctate fluorescent granules within the cell. Quantification of receptor internalization was performed by measuring the Alexa-488 anti-HA monoclonal antibody-stained intracellular granule fluorescence intensities normalized per cell number in each well. […]

CB1 = CB1 (Homo sapiens, UniProt P21554); conditions: read-out: potency in GTP-γS binding assays, CB1 receptor; cited from earlier work
Chain of CB1 (P21554 whole entry): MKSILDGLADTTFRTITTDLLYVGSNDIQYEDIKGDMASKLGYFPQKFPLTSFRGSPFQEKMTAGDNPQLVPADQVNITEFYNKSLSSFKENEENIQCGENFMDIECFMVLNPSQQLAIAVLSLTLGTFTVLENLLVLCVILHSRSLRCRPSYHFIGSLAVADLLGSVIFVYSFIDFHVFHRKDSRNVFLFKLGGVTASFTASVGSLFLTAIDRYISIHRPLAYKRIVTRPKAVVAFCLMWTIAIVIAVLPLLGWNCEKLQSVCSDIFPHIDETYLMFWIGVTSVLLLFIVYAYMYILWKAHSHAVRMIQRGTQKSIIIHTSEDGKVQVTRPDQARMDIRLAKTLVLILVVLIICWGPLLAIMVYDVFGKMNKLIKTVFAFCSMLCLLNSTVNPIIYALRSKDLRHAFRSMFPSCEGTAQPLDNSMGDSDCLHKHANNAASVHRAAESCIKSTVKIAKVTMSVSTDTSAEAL

[6] = test system: CB2 receptor over CB1 receptor; conditions: Eur. Urol. 2010 FIG. 2a; cited from earlier work
hCB2 [7] = biological target: T2, hCB2; conditions: cited from earlier work

SMILES | course of plasma concentration [1] | receptor internalization efficacy relative to CP55,940, rat CB2 (rat CB2 receptor [2]) | in vivo efficacy over time in the osteoarthritis pain model [3] | time following dosing up to which in vivo efficacy was maintained [3] | other results
CC(C)(CO)NC(=O)c1nn(-c2ccc(F)cc2F)c2c1C[C@H]1C[C@@H]21 [Compound 493] | high plasma concentrations that did not decline significantly until four hours following dosing | 58% | rapid loss of in vivo efficacy | – | receptor internalization (rat CB2 receptor [2]): low receptor internalization; time following dosing at which in vivo efficacy was lost [3]: two and four
CNC(=O)[C@@H](NC(=O)c1nn(-c2c[n+]([O-])ccn2)c2c1C[C@H]1C[C@@H]21)C(C)(C)C [Compound 704] | increasing plasma concentrations | – | rapid loss of in vivo efficacy | – | β-arrestin efficacy compared to CP55,940, rat CB2 (rat CB2 receptor [4]): 88%; time of peak efficacy following dosing [3]: one; β-arrestin efficacy compared to CP55,940, human CB2 (hCB2 [5]): 106%
O=C(NC1(C(F)(F)F)CCC1)c1nn(-c2c[n+]([O-])ccn2)c2c1C[C@@H]1C[C@H]21 [Compound 765] | decreasing plasma concentrations | 99% | sustained in vivo efficacy | six | receptor internalization efficacy relative to CP55,940, human CB2 (human CB2 receptors): 97%
CC(CO)(CO)NC(=O)c1nn(-c2cc(C#N)ccn2)c2c1C[C@H]1C[C@@H]21 [Compound 820] | high plasma concentrations | – | rapid loss of in vivo efficacy | – | β-arrestin efficacy compared to CP55,940, rat CB2 (rat CB2 receptor [4]): 56%; time of peak efficacy following dosing [3]: one; β-arrestin efficacy compared to CP55,940, human CB2 (hCB2 [5]): 82%
O=C(N[C@H](CO)C1CCOCC1)c1nn(-c2c[n+]([O-])ccn2)c2c1C[C@H]1C[C@@H]21 [Compound 841] | rapidly declining plasma concentrations; also recorded: decreasing plasma concentrations | 105% | sustained in vivo efficacy | four | concentration at 6 h ([1]; rat, plasma, oral, when efficacy was lost, read-out: plasma drug levels at the six hour timepoint): < 3 ng/mL; receptor internalization (rat CB2 receptor [2]): high receptor internalization; time following dosing at which in vivo efficacy was lost [3]: six
CC(C)(NC(=O)c1nn(-c2c[n+]([O-])ccn2)c2c1C[C@@H]1C[C@H]21)C(F)(F)F [Compound 919] | rapidly declining plasma concentrations; also recorded: decreasing plasma concentrations | 92% | sustained in vivo efficacy | six | receptor internalization efficacy relative to CP55,940, human CB2 (human CB2 receptors): 95%
CCCCCCC(C)(C)c1cc(O)c(C2CC(=O)[C@H]3C[C@@H]2C3(C)C)c(OC(=O)/C=C/C(=O)O)c1 (some centres unmarked) [cannabinor] | – | – | – | – | EC50 (CB1): 5590 nM; selectivity measured in radioligand binding assays [6]: approximately 10 fold; agonist character at the CB2 receptor upon closer examination of the published data (hCB2 [7]; Eur. Urol. 2010 FIG. 2b): only a partial agonist; agonist character at the human CB2 receptor as the publication suggests (hCB2 [7]): full agonist; selectivity for the CB2 receptor over the CB1 receptor (GTP-γS) (hCB2 [7]): 321 fold; EC50 (hCB2 [7]; read-out: potency in GTP-γS binding assays, CB2 receptor): 17.4 nM
